Patent EP1764134B1, “Purine derivatives linked to arylpiperazines” (Spectrum Pharmaceuticals, Inc., priority 2001, dated 2003)

Experiments:
[1] = system: mice; assay: Conditioned avoidance testing (CAR, active avoidance); assay type: in vivo; settings: S.C. 20 minutes before the test session
Method: Training: Consists of 20 trials with variable inter-trial intervals (Trained to 80% Avoidance Criteria). After a one-minute acclimation period, the house light and an acoustic 90dB tone (conditioned stimuli) are presented. A response (crossing to dark compartment) within 5 seconds ends the trial and trial is recorded as avoidance response (CAR). […] To avoid shock, animals learn to move from the lighted side of the chamber to the dark side when the cue is presented (avoidance) or moved when the shock is administered (escape).Testing: Vehicle or test compounds are administered S.C. 20 minutes before the test session. (Checking for disruption of cognition and attention) Table 3. Conditioned Avoidance Responding

[2] = system: Caco-2 cells
Method: Caco-2 cells were used to evaluate the membrane permeability of eight embodiments of the present invention. Monolayers were grown to confluence and the integrity checked by transepithelial electrical resistance (TEER) and permeability of Lucifer Yellow. The expression of P-glycoprotein was confirmed by measuring the permeability of digoxin alone and in the presence of verapamil. Permeability measurements were taken for each compound in the apical to basolateral (AP-BL) direction, and the basolateral to apical (BL-AP) direction.

[3] = system: male C-57 mice; assay: Pre-pulse inhibition testing: reversal of PCP disruption of pre-pulse inhibition of acoustic startle; assay type: in vivo; settings: route not given (method: PO or SC); 20 minutes prior to PCP 5mg/kg IP

Compound | Conditioned Avoidance Responding: effect on avoidance (in words) [1] | Conditioned Avoidance Responding: effect on latency (in words) [1] | PERMEABILITY [2] | Conditioned Avoidance Responding (overall effect / effect on escape or avoidance, in words) [1] | PCP Disruption of Pre-pulse Inhibition (result in words) [3]
Cc1nc2n(c(=O)c1CCN1CCC(c3noc4cc(F)ccc34)CC1)CCCC2 [Risperidone, risperidone, reference compound] | Significant reduction in avoidance | Significant increase in latency | – | – | –
O=C1CCCc2c1ccn2CCCCN1CCN(c2cccc(C(F)(F)F)c2)CC1 [NEO-392, 1-{4-[4-(3-Trifluoromethylphenyl)piperazin-1-yl]butyl}-1,5,6,7-tetrahydroindol-4-one] | Significant reduction in avoidance | Significant increase in latency | High | – | –
COc1ccccc1N1CCN(CCn2ccc3c2CCCC3=O)CC1 [NEO-377, 1-{2-[4-(2-Methoxyphenyl)-piperazin-1-yl]-ethyl}-1,5,6,7-tetrahydro-indol-4-one] | Significant reduction in avoidance | Significant increase in latency | High | – | –
CC(C)NCC(O)COc1cccc2ccccc12 (stereo not drawn) [Propranolol, reference compound] | – | – | High | – | –
O=C1CCCc2c1ccn2CCCN1CCN(c2cccc(C(F)(F)F)c2)CC1 [NEO-356, 1-{3-[4-(3-Trifluoromethylphenyl)piperazin-1-yl]propyl}-1,5,6,7-tetrahydroindo1-4-one] | – | – | High | No effect | No reversal
O=C1CCCc2c1ccn2CCCN1CCN(c2ncccn2)CC1 [NEO-381, 1-{3-[4-(2-Pyrimidyl)piperazine-1-yl]propyl}-1,5,6,7-tetrahydroindol-4-one] | – | – | High | No effect | No reversal
O=C1CCCc2c1ccn2CCN1CCN(c2cccc(Cl)c2)CC1 [NEO-376, 1-{2-[4-(3-Chloro-phenyl)-piperazin-1-yl]-ethyl}-1,5,6,7-tetrahydro-indol-4-one] | – | significant increase in latency | High | No effect on escape or avoidance | –
O=C1CCCc2c1ccn2CCN1CCN(c2cccc(C(F)(F)F)c2)CC1 [NEO-359, 1-{2-[4-(3-Trifluoromethylphenyl)piperazin-1-yl]ethyl}-1,5,6,7-tetrahydroindol-4-one] | – | Significant decrease in latency | High | No effect on escape or avoidance | No reversal
COc1ccccc1N1CCN(CCCn2ccc3c2CCCC3=O)CC1 [NEO-370, 1-{3-[4-(2-Methoxyphenyl)piperazine-1-yl]propyl}-1,5,6,7-tetrahydroindol-4-one] | Significant reduction in avoidance | Significant increase in latency | High | – | –
O=C1CCCc2c1ccn2CCCN1CCN(c2cccc(Cl)c2)CC1 [NEO-363, 1-{3-[4-(3-Chlorophenyl)piperazine-1-yl]propyl}-1,5,6,7-tetrahydroindol-4-one] | – | – | High | No effect | –
